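Exposure lasted 48 hours, with cells grown in 96-well plates and compounds tested at five concentrations. Here, GI50 denotes the concentration required for 50% inhibition of growth.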 Active and inactive are the calls of the source. No stated cut-off is given here; in the data, active = GI50 up to about 1.1 µM and inactive = higher.
Key:
Test in all cases: DTP human tumour cell line panel, 48 h
UACC-257 = tested on: UACC-257
COLO 205 = tested on: COLO 205
EKVX = tested on: EKVX
UACC-62 = tested on: UACC-62
SK-MEL-2 = tested on: SK-MEL-2
PC-3 = tested on: PC-3
A549 = tested on: A549
KM12 = tested on: KM12
CAKI-1 = tested on: CAKI-1
HL-60 = tested on: HL-60
SR = tested on: SR
OVCAR-4 = tested on: OVCAR-4
TK-10 = tested on: TK-10
HOP-62 = tested on: HOP-62
CCRF-CEM = tested on: CCRF-CEM
OVCAR-5 = tested on: OVCAR-5
SNB-75 = tested on: SNB-75
A498 = tested on: A498
HCC 2998 = tested on: HCC 2998
MCF7 = tested on: MCF7

SMILES | GI50 (UACC-257) | GI50 (COLO 205) | GI50 (EKVX) | GI50 (UACC-62) | GI50 (SK-MEL-2) | GI50 (PC-3) | GI50 (A549) | GI50 (KM12) | GI50 (CAKI-1) | GI50 (HL-60) | GI50 (SR) | GI50 (OVCAR-4) | GI50 (TK-10) | GI50 (HOP-62) | GI50 (CCRF-CEM) | GI50 (OVCAR-5) | GI50 (SNB-75) | GI50 (A498) | GI50 (HCC 2998) | GI50 (MCF7)
N=C(c1ccc(-c2cn3cc(C(=N)N4CCCC4)ccc3n2)cc1)N1CCCC1 | > 100 µM (inactive) | > 100 µM (inactive) | > 100 µM (inactive) | > 100 µM (inactive) | > 100 µM (inactive) | > 100 µM (inactive) | > 100 µM (inactive) | > 100 µM (inactive) | > 100 µM (inactive) | 0.0303 µM (active) | > 100 µM (inactive) | > 100 µM (inactive) | > 100 µM (inactive) | > 100 µM (inactive) | 20.8 µM (inactive) | > 100 µM (inactive) | > 100 µM (inactive) | – | – | –
O=C1CC(c2ccccc2)NCN1 (centres undefined) | > 100 µM (inactive) | > 100 µM (inactive) | > 100 µM (inactive) | > 100 µM (inactive) | > 100 µM (inactive) | – | > 100 µM (inactive) | > 100 µM (inactive) | > 100 µM (inactive) | > 100 µM (inactive) | > 100 µM (inactive) | > 100 µM (inactive) | > 100 µM (inactive) | > 100 µM (inactive) | > 100 µM (inactive) | > 100 µM (inactive) | > 100 µM (inactive) | > 100 µM (inactive) | > 100 µM (inactive) | –
CC1=C(c2cc(C(=O)Nc3ccc(Cl)c(Cl)c3)nc(N)n2)Sc2ccccc2N1 | > 100 µM (inactive) | > 100 µM (inactive) | 98.6 µM (inactive) | > 100 µM (inactive) | > 100 µM (inactive) | – | > 100 µM (inactive) | > 100 µM (inactive) | > 100 µM (inactive) | > 100 µM (inactive) | > 100 µM (inactive) | > 100 µM (inactive) | > 100 µM (inactive) | > 100 µM (inactive) | > 100 µM (inactive) | > 100 µM (inactive) | > 100 µM (inactive) | > 100 µM (inactive) | > 100 µM (inactive) | –
Cc1oc2nc(N(C)C)nc(NN)c2c1C | > 100 µM (inactive) | > 100 µM (inactive) | > 100 µM (inactive) | > 100 µM (inactive) | > 100 µM (inactive) | > 100 µM (inactive) | > 100 µM (inactive) | > 100 µM (inactive) | > 100 µM (inactive) | > 100 µM (inactive) | – | > 100 µM (inactive) | > 100 µM (inactive) | > 100 µM (inactive) | > 100 µM (inactive) | > 100 µM (inactive) | > 100 µM (inactive) | > 100 µM (inactive) | > 100 µM (inactive) | –
O=C1[C@H](Cl)[C@H]2c3cc4ccccc4nc3Oc3ccccc3N12 | 50.4 µM (inactive) | 54.8 µM (inactive) | 81.8 µM (inactive) | 18.3 µM (inactive) | 36.5 µM (inactive) | – | 33.5 µM (inactive) | 33.3 µM (inactive) | 38.7 µM (inactive) | 25.5 µM (inactive) | 20.9 µM (inactive) | 45.5 µM (inactive) | > 100 µM (inactive) | 35.4 µM (inactive) | 61 µM (inactive) | 67.3 µM (inactive) | 1.4 µM (inactive) | 42.9 µM (inactive) | 39.4 µM (inactive) | –
Cc1cc(S(=O)(=O)Nc2nc3ccsc3c(=O)n2N)c(S)cc1Cl | > 100 µM (inactive) | > 100 µM (inactive) | > 100 µM (inactive) | 38.7 µM (inactive) | 76.2 µM (inactive) | > 100 µM (inactive) | > 100 µM (inactive) | 80.7 µM (inactive) | > 100 µM (inactive) | > 100 µM (inactive) | – | 68.1 µM (inactive) | > 100 µM (inactive) | 39.9 µM (inactive) | 71.9 µM (inactive) | 35.2 µM (inactive) | > 100 µM (inactive) | – | > 100 µM (inactive) | > 100 µM (inactive)
Oc1c(Cl)c(Cl)c(O)c2c1CCCC2 | 16.8 µM (inactive) | 1.83 µM (inactive) | 7.85 µM (inactive) | 13.4 µM (inactive) | 19.7 µM (inactive) | 17.7 µM (inactive) | 21 µM (inactive) | 12.4 µM (inactive) | – | – | – | – | 3.37 µM (inactive) | 25.4 µM (inactive) | 2.08 µM (inactive) | – | – | 19.1 µM (inactive) | 14.3 µM (inactive) | 2.13 µM (inactive)
CCOC(=O)/C=C1\c2ccccc2C(=O)N1CC(=O)OCC | > 100 µM (inactive) | > 100 µM (inactive) | > 100 µM (inactive) | > 100 µM (inactive) | > 100 µM (inactive) | > 100 µM (inactive) | > 100 µM (inactive) | > 100 µM (inactive) | > 100 µM (inactive) | – | – | > 100 µM (inactive) | > 100 µM (inactive) | > 100 µM (inactive) | > 100 µM (inactive) | > 100 µM (inactive) | 77.1 µM (inactive) | > 100 µM (inactive) | – | –
Cc1nc(C(=O)O)c2ccccc2n1 | > 100 µM (inactive) | > 100 µM (inactive) | – | > 100 µM (inactive) | > 100 µM (inactive) | – | > 100 µM (inactive) | > 100 µM (inactive) | > 100 µM (inactive) | > 100 µM (inactive) | > 100 µM (inactive) | – | > 100 µM (inactive) | – | > 100 µM (inactive) | > 100 µM (inactive) | > 100 µM (inactive) | > 100 µM (inactive) | > 100 µM (inactive) | –
O=C1Cc2cc3ccccc3nc2-c2ccccc2N1 | 99.1 µM (inactive) | > 100 µM (inactive) | 67 µM (inactive) | > 100 µM (inactive) | > 100 µM (inactive) | > 100 µM (inactive) | 63.7 µM (inactive) | > 100 µM (inactive) | 32.7 µM (inactive) | > 100 µM (inactive) | – | 45.6 µM (inactive) | 27.7 µM (inactive) | 56 µM (inactive) | > 100 µM (inactive) | > 100 µM (inactive) | 24.7 µM (inactive) | 61.5 µM (inactive) | 31.4 µM (inactive) | 49 µM (inactive)
COc1cc2c(c(OC)c1OC)-c1ccc(SC)c(=O)cc1C(CC(=O)Oc1ccc(F)cc1)C2 (centres undefined) | 38.9 µM (inactive) | 0.133 µM (active) | 5.04 µM (inactive) | 0.129 µM (active) | 0.23 µM (active) | – | 0.134 µM (active) | 0.158 µM (active) | 0.0676 µM (active) | 0.043 µM (active) | 0.0466 µM (active) | 0.741 µM (active) | 40.8 µM (inactive) | 0.341 µM (active) | 0.238 µM (active) | 39.1 µM (inactive) | 0.234 µM (active) | 0.0374 µM (active) | 0.121 µM (active) | –
COC(=O)C1Cc2c([nH]c3ccccc23)-c2[nH]c3ccccc3c2CC(NC(C)=O)C(=O)NCC(=O)NCC(=O)N1 (centres undefined) | > 100 µM (inactive) | > 100 µM (inactive) | > 100 µM (inactive) | > 100 µM (inactive) | > 100 µM (inactive) | > 100 µM (inactive) | > 100 µM (inactive) | > 100 µM (inactive) | > 100 µM (inactive) | > 100 µM (inactive) | – | – | > 100 µM (inactive) | > 100 µM (inactive) | > 100 µM (inactive) | > 100 µM (inactive) | > 100 µM (inactive) | > 100 µM (inactive) | – | –
O=C1OC2(c3ccccc31)c1cc(I)c(O)c(I)c1Oc1c2cc(I)c(O)c1I [ERYTHROSINE] | > 100 µM (inactive) | > 100 µM (inactive) | > 100 µM (inactive) | 75.9 µM (inactive) | > 100 µM (inactive) | > 100 µM (inactive) | > 100 µM (inactive) | 10.4 µM (inactive) | 14.6 µM (inactive) | – | > 100 µM (inactive) | > 100 µM (inactive) | > 100 µM (inactive) | > 100 µM (inactive) | > 100 µM (inactive) | > 100 µM (inactive) | > 100 µM (inactive) | – | – | > 100 µM (inactive)
COCC1OC(S(=O)(=O)c2ccccc2)C(O)C(OC)C1OC (centres undefined) | > 100 µM (inactive) | > 100 µM (inactive) | > 100 µM (inactive) | > 100 µM (inactive) | > 100 µM (inactive) | > 100 µM (inactive) | > 100 µM (inactive) | > 100 µM (inactive) | > 100 µM (inactive) | > 100 µM (inactive) | > 100 µM (inactive) | > 100 µM (inactive) | > 100 µM (inactive) | > 100 µM (inactive) | > 100 µM (inactive) | > 100 µM (inactive) | – | – | > 100 µM (inactive) | > 100 µM (inactive)
COC(=O)/C=C(\C(=O)OC)C1C(=O)Oc2c(C)c(=O)c3ccccc3n21 (centres undefined) | > 100 µM (inactive) | > 100 µM (inactive) | > 100 µM (inactive) | > 100 µM (inactive) | > 100 µM (inactive) | > 100 µM (inactive) | > 100 µM (inactive) | > 100 µM (inactive) | > 100 µM (inactive) | > 100 µM (inactive) | > 100 µM (inactive) | > 100 µM (inactive) | > 100 µM (inactive) | > 100 µM (inactive) | > 100 µM (inactive) | – | > 100 µM (inactive) | – | – | > 100 µM (inactive)
Cc1cccc(C)c1NC(=O)CCCC(=O)C(C#N)c1ccccc1 (centres undefined) | > 100 µM (inactive) | > 100 µM (inactive) | > 10 µM (inactive) | > 10 µM (inactive) | > 100 µM (inactive) | – | > 10 µM (inactive) | > 10 µM (inactive) | > 100 µM (inactive) | > 100 µM (inactive) | > 100 µM (inactive) | > 100 µM (inactive) | – | > 10 µM (inactive) | > 100 µM (inactive) | > 10 µM (inactive) | > 100 µM (inactive) | > 10 µM (inactive) | > 10 µM (inactive) | –
